Experimental data taken from patent publication US20080200531A1, “CDKI pathway inhibitors as inhibitors of tumor cell growth” (priority 2006, published 2008).

Experiments:
[1] = tested on: HT1080-derived reporter cell line; experiment: Growth inhibition and cell death in HT1080-derived reporter cell line; type: cell-based, human; settings: cell death detected microscopically by cell detachment
Description: The combination of p21 and SNX9-class compounds leads to both G1 and G2/M arrest, at the levels expected for the combined effects of p21 and SNX9 (FIG. 6).

[2] = tested on: isogenic human fibroblast cell lines (untransformed, partially transformed, fully transformed); experiment: Dose-dependent growth inhibition of three isogenic human fibroblast cell lines with increasing neoplastic transformation; type: cell-based; settings: 3-day assay, Hoechst 33342
Description: To determine if tumor-specific growth inhibitory activity of SNX9 class compounds could be due to the inhibition of a specific CDK, we took advantage of the availability of selective inhibitors for some of the CDK proteins. Among these enzymes, CDK1, CDK2 and CDK4/CDK6 (the latter two CDKs are closely related to each other and interact with the same class of cyclins), have been used as targets for developing specific inhibitors, with potential anticancer activity. In contrast, CDK3 has not been used as a target for developing selective inhibitors. We have obtained commercially available selective inhibitors of CDK1 (CGP74514A) (Calbiochem Cat. No. 217696), CDK2 (CVT-313) (Calbiochem Cat. No. 238803), and CDK4 (NSC 625987) (Calbiochem Cat. No. 219477), and tested them, along with a broad-specificity CDK inhibitor flavopiridol, and with SNX14, SNX9 and SNX9-1, for growth inhibition of normal and transformed fibroblasts.
This analysis was done using a set of three isogenic human fibroblast cell lines with increasing degrees of neoplastic transformation (immortal but untransformed, partially transformed, and fully transformed).

[3] = tested on: p21-induced CMV-GFP expression (CDKI pathway); experiment: CMV-GFP reporter assay for p21-induced transcription (HTS) in HT1080 p21-9 derived reporter cell line; type: cell-based, human; settings: for anti-CDKI pathway activity in the reporter assay (induction of CMV-GFP expression in response to p21): libraries screened at 20 μM
Description: As described in a co-pending patent application PCT/US06/0 1046, we have developed a high-throughput screening (HTS) procedure for compounds inhibiting the CDKI pathway. This procedure utilizes a highly sensitive reporter cell line that was generated by infecting HT1080 p21-9 cells, a derivative of HT1080 fibrosarcoma cells that express p21 from a promoter induced by a physiologically neutral β-galactoside IPTG (isopropyl-β-thio-galactoside) with a lentiviral vector that expresses Green Fluorescent Protein (GFP) from the CDKI-inducible cytomegalovirus (CMV) promoter, followed by subcloning of GFP positive cells and monitoring the induction of GFP expression by IPTG. A cell line showing approximately 10-fold increase in GFP upon the addition of IPTG was used for HTS in a 96-well format.
This reporter line was used to screen two diversified small-molecule libraries developed by ChemBridge Corp., Microformat 04 and DiverSet, each comprising 50,000 compounds. These diversified libraries were rationally chosen by ChemBridge by quantifying pharmacophores in a collection of >500,000 drug-like molecules, using a version of Chem-X software to maximize the pharmacophore diversity. The Microformat 04 collection was designed to complement the chemical space covered by the older DiverSet library. ChemBridge libraries have been successfully used by numerous industrial and academic researchers, in a variety of cell-based and cell-free assays. The ChemBridge libraries were screened at 20 μM concentration, a conventional concentration for cell-based screening of these libraries. 62 of 100,000 ChemBridge compounds were identified by HTS and verified as inhibiting the induction of CMV-GFP expression in response to p21. This low hit rate (0.06%) indicates a high selectivity of our assay.
In this experiment, HT1080 p21-9 cells that express firefly luciferase from a CDKI-responsive promoter of cellular NK4 gene were cultured with IPTG for two days, which is sufficient for near-maximal induction of NK4 (Poole et al., supra).

[4] = tested on: CDKI-responsive endogenous genes induced by p16; experiment: Q-PCR of CDKI-responsive endogenous genes, HT1080 cells with IPTG-inducible p16; type: cell-based, human; settings: 10 μM SNX9; normalized to β-actin
Protocol: For this purpose, we developed real-time RT-PCR (Q-PCR) assays for measuring RNA levels of eleven CDKI-responsive genes. This assay uses a 96-well TurboCapture RNA extraction kit (Qiagen), in which oligo(dT) is covalently bound to the surface of the wells to allow mRNA isolation from cell lysate and cDNA synthesis in the same wells. 5 units/μl of SuperScript III reverse transcriptase (Invitrogen) was added to the wells for 1 hr for cDNA synthesis at 50° C., and 2 μl of the resulting cDNA was then used for Q-PCR analysis using SYBR Green PCR Master Mix (ABI) with ABI 7900HT Q-PCR machine.
This effect argues that the molecular target of these compounds is not a specific CDKI but rather a common downstream mediator of the transcription-inducing effects of different CDKI.

[5] = Plasma level of SNX9 one hour after IV injection, HPLC analysis; type: in vivo; settings: NCr nude, mouse, one hour after IV injection of 70 mg/kg, two mice
Protocol: In order to determine the ability of SNX9 to remain in the blood of mice at detectable levels, we analyzed its plasma level one hour after IV injection. Two control mice were uninjected, and two mice were injected IV with 70 mg/kg SNX9 (dissolved in PBS). After one hour, the mice were euthanized and the blood collected by cardiac puncture. After plasma was prepared from the whole blood it was frozen and stored at −70° C. The frozen plasma was thawed and 100 μl was cleared of plasma protein by precipitation with 4 volumes of 100% ethanol at −20° C. for one hour. Under these conditions, SNX9 is recovered quantitatively in the ethanol soluble fraction with a minimum of plasma contamination.
The first assay was HPLC analysis. For this assay, the ethanol soluble fraction was dried under vacuum and re-dissolved in 100 μl 30% acetonitrile 0.1% trifluoroacetic acid (TFA). 4 μl of the ethanol extracted SNX9 was applied to a C18 HPLC column and eluted isocratically using a buffer of 30% acetonitrile 0.1% TFA at a flow rate of 0.3 ml/min. The elution of SNX9 was monitored at its absorption maximum wavelength of 280 nm. […]
The second assay was a biological test for cytotoxicity. […] After 72 hours the growth inhibition was measured by Hoechst staining of the cell lysate in each well of the 96 well tissue culture plate, prepared as previously described.

| SMILES | growth inhibition of the HT1080-derived reporter cell line [1] | selectivity of growth inhibition for transformed cell lines relative to immortal but untransformed fibroblasts [2] | anti-CDKI pathway activity in the reporter assay (induction of CMV-GFP expression in response to p21) [3] | induction of CDKI-responsive endogenous genes by p16 (ratio of RNA levels with and without IPTG) [4] | concentration at 1 h [5] | normalized GFP expression without p21 induction ([3]; in the absence of IPTG) | normalized GFP expression with p21 induction ([3]; in the presence of IPTG, three days of p21 induction) |
| --- | --- | --- | --- | --- | --- | --- | --- |
| NCCc1c[nH]c2c(Cl)cc(Cl)cc12 [SNX9-1] | associated with the induction of both cell death (as detected microscopically by cell detachment) and cell cycle arrest | pronounced selectivity for partially transformed or fully transformed cell lines | showed anti-CDKI pathway activity in the reporter assay |  |  |  |  |
| Cc1[nH]c2c(Cl)cccc2c1CCN [SNX9] | associated with the induction of both cell death (as detected microscopically by cell detachment) and cell cycle arrest | pronounced selectivity for partially transformed or fully transformed cell lines | showed anti-CDKI pathway activity in the reporter assay | partially inhibit the induction of all the tested genes | ~250 µM | does not inhibit promoter function when p21 is not induced | pronounced inhibition of transcription by p21 |
